# Experimental data published in patent publication US12465630B2, “Small peptide compositions and uses thereof” (University of Pittsburgh—Of the Commonwealth System of …, priority 2018, dated 2025).
# Entries after “also recorded” stand apart in the source; their conditions may differ. Ends that are not written are not given here.
# Columns and labels:
# primary lung fibroblasts [1] = conditions: for number of viable cells (Calcein-AM uptake): 1 to 1000 ng/mL, 24 hours
# Experimental: The effect of IP-10-related peptides on viability of lung fibroblasts was evaluated. Primary lung fibroblasts from healthy patients (SC31 and SC45) were either left untreated or treated with various concentrations of peptides (1 to 1000 ng/mL) for 24 hours. Treatment for 30 minutes with 70% ethanol in water was used as a positive control for dead cells. The Molecular Probes LIVE/DEAD Viability/Cytotoxicity Kit for mammalian cells (Invitrogen) was used to stain live cells. Following the manufacturer's protocol, at the end of treatment, cells in 96-well plates were washed with PBS, and then incubated in 2 μM Calcein-AM solution for 45 minutes at room temperature. Following incubation, the cells were imaged under a fluorescence microscope using the GFP channel. For quantification, ImageJ was used to count the number of live cells per field.
# cardiac fibroblasts (CF) = assay: Real time quantitative PCR relative gene expression, cardiac fibroblasts; type: cell-based, mouse; conditions: peptide with CXCL10
# From the text: (§1) CM and CF were isolated from wild type and CXCR3-null FVB neonatal mice. Following isolation, CM, CF, or CM/CF in both direct and indirect co-cultures were challenged with CM and CF activating growth factor transforming growth factor […]. Antagonist peptide treatments, CRF-5-3 and CRF-5-5, were given alone or in combination with CXCL10. To determine whether CRF-5-3 and CRF-5-5 block CXCL10 binding to its receptor, the ability of biotin-tagged CXCL10 and/or FITC-tagged CRF-5-5 to compete for binding to CM and CF was analyzed using flow cytometry. In vitro cellular function assays were assessed for migration, apoptosis, and extracellular matrix (ECM) secretion. Real time quantitative polymerase chain reaction was employed in order to determine modified relative gene expression of both CM and FB, following treatment.
# cardiac fibroblasts [2] = assay: P38 MAPK-dependent extracellular matrix production in cardiac fibroblasts; type: cell-based, mouse
# From the text: as §1
# [3] = tested on: cardiac fibroblasts (CF) and cardiomyocytes (CM); assay: In vitro cellular function assays on CM and CF (P38 signaling, motility, ECM); type: cell-based, mouse
# From the text: as §1
# cardiomyocytes (CM) = assay: Real time quantitative PCR relative gene expression, cardiomyocytes; type: cell-based, mouse; conditions: peptide with CXCL10
# From the text: as §1
# cardiac fibroblasts [4] = assay: Motility (scratch) assay, cardiac fibroblasts; type: cell-based, mouse
# Experimental: (§2) Primary cardiac fibroblasts and cardiomyocytes were isolated from both wild-type and CXCR3−/− neonatal mouse pups. After washing in PBS, hearts were stirred for 5 minutes in 0.5% trypsin at 37° C. to dissociate cells into solution. The suspended cells were then transferred to DMEM containing 20% fetal bovine serum (FBS) on ice to inactivate trypsin activity, and dissociation was repeated twice more with fresh trypsin solution. Cells were then washed and plated into 6-well plates at 1.25×10^6 cells/well, suspended in cardiac cell media (DMEM containing 7.5% dialyzed FBS and 1% antibiotic/antimitotic solution). After three hours, adhered fibroblasts were separated from the unattached cardiomyocytes through resuspension of the cells, and cardiomyocytes were plated separately at a density of 5×10^5 cells/ml.
# (§3) To determine the effect of IP-10p on TGFβ1-induced cell migration, motility assays were performed on cardiac fibroblasts, cardiomyocytes, and co-cultures (2:1 ratio of cardiomyocytes to fibroblasts). Cells were plated at 2.5×10^5 cells/well in a 12-well uncoated plate in depleted media (DMEM containing 0.5% FBS) 24 hours before beginning the experiment. A pipette tip was used to create a scratch in the monolayer and the plate was washed twice with PBS to remove scraped cells. Cells were then treated with TGFβ1 (R&D Systems, Minneapolis, MN) alone (10 ng/mL) to stimulate fibrosis, CXCL10 alone (10 μM), IP-10p alone (10 μM), TGFβ1+CXCL10, TGFβ1+IP-10p, or left untreated. Images were taken immediately after scratching and 24 hours later, and Adobe Photoshop was used to quantify wound motility as distance between wound edges relative to the initial scratch width.
# [5] = tested on: co-cultures of cardiomyocytes and cardiac fibroblasts; assay: Fibrotic extracellular matrix (ECM) secretion, co-cultures; type: cell-based, mouse; conditions: agent alone vs unstimulated cultures, 48 h
# Experimental: as §2
# Cardiac fibrosis is marked by overproduction of ECM proteins following injury. To observe the effect of IP-10p on secretion of these molecules, co-cultures of cardiomyocytes and cardiac fibroblasts were used to account for […] signaling taking place between the two dominant cell types in the heart. Fibroblasts and myocytes were plated at a 2:1 ratio using the same culture conditions and treatment groups described above for fibroblast activation. Following a 48-hour incubation with their respective treatments, cells were fixed, permeabilized and stained. Antibodies for collagen α1 type 1 (1:250, Santa Cruz Biotechnology SC8784, Dallas, TX), fibronectin (1:250, Abcam ab2413), and tenascin C (1:200, Abcam ab6346), followed by their appropriate secondary antibodies (Abcam ab150132, ab150077, and 150153, respectively), were used to determine fibrotic ECM secretion from the co-cultures. Expression of these molecules is expressed at CTCF and was quantified using MetaMorph® (Molecular Devices, Sunnyvale, CA).
# primary lung fibroblasts [6] = assay: qPCR of pro-fibrotic mRNAs in primary lung fibroblasts; type: cell-based, human; conditions: TGF-β 10 ng/mL, 24 h
# Experimental: The next day, the medium was changed to quiescent medium and the cells were incubated in this medium for 24 hours. The following day, cells were either left untreated, treated with 10 ng/mL or 100 ng/mL of IP-10-1 (SEQ ID NO: 2), IP-10-2 (SEQ ID NO: 3) or IP-10-3 (SEQ ID NO: 4) peptide, treated with 10 ng/mL TGF-β, or treated with peptide and TGF-β for 24 hours. Total RNA was extracted using the Qiagen miRNeasy kit (Qiagen) and treated with DNase1, according to the manufacturer's instructions. RNA was then quantified and converted to cDNA using the Clontech RNA to cDNA EcoDry Double Primed Premix (Takara). qPCR was performed using PowerUp Sybr Green (Invitrogen) on an Applied Biosystems Quant Studio 3 instrument. Primers were from IDT and were designed using IDT Primer Quest and NCBI Primer Blast tools. The delta-delta Ct method was used to determine relative expression. GAPDH was used as a housekeeping gene.
# cardiac fibroblasts [7] = assay: Fibroblast activation assay (αSMA), cardiac fibroblasts; type: cell-based, mouse; conditions: TGFβ1 10 ng/mL vs untreated control
# Experimental: as §2
# Fibroblast activation to myofibroblasts is marked by αSMA expression within the cytoskeleton and serves as a marker to induce fibrosis. Cardiac fibroblasts were plated at 2,000 cells/well in an 8-well chamber slide and allowed to adhere overnight. After 24 hours, cells were washed and treated with: TGFβ1 alone (10 ng/ml), CXCL10 alone (10 μM), IP-10p alone (10 μM), TGFβ1+CXCL10, TGFβ1+IP-10p, or left untreated. After 24 hours, cells were fixed in ice cold methanol for 10 minutes and stained for αSMA (1:200, Abcam ab5694, Cambridge, UK) at 4° C. overnight, followed by a goat-anti-rabbit Alexa Fluor 594-conjugated secondary antibody (Abcam ab150080). After counterstaining with DAPI, cells were imaged, and fibroblast activation was measured using corrected total cell fluorescence (CTCF). These measurements were also performed in co-cultures of cardiomyocytes and cardiac fibroblasts (2:1 ratio)
# primary lung fibroblasts [8] = assay: Scratch assay, TGF-β-induced fibroblast migration; type: cell-based, human; conditions: TGF-β 10 ng/mL, 24 hours
# Experimental: Next, studies were performed to evaluate the effect of IP-10 related peptides on migration of lung fibroblasts in response to TGF-β. Primary lung fibroblasts from healthy patients were plated in 24-well plates in complete medium and incubated overnight. The next day, the medium was changed to quiescent medium and cells were incubated in this medium for 24 hours. The following day, a plus-shaped scratch was made across the cells using a 1000 μL pipette tip. An image was taken at a location that could be identified later. After imaging, cells were either left untreated, treated with 100 ng/mL peptide alone, treated with 10 ng/mL TGF-β, or treated with peptide and TGF-β and incubated for 24 hours. At the end of the incubation time, the cells were imaged in the same location as in the original image to visualize closure of the scratch. The denuded area was calculated using ImageJ software and the percent wound closure was calculated for each treatment group.
# CM/CF co-cultures = assay: Histochemical and fluorescence analyses of ECM in CM/CF co-cultures; type: cell-based, mouse
# From the text: as §1
# cardiomyocytes = assay: Motility (scratch) assay, cardiomyocytes; type: cell-based, mouse; conditions: TGFβ1 10 ng/mL + agent 10 μM, 24 h; FIG. 1A
# Experimental: as §2, §3
compound,measurement,setting,value
PESKVIKNLLKVASKERSKRSP [IP-10-1],number of viable cells (Calcein-AM uptake),primary lung fibroblasts [1],no impact
FRWLWRGGRWLWRF [CRF-5-5],CXCL10-induced gene expression on FB,cardiac fibroblasts (CF),altered
same,CXCL10 inhibition of TGF-β-induced P38 MAPK-dependent extracellular matrix production,cardiac fibroblasts [2],altered
same,CXCL10-suppressed growth factor-induced ECM production,[3],promote the disinhibition
same,CXCL10-suppressed growth factor-induced intracellular P38 signaling,[3],promote the disinhibition
same,CXCL10-suppressed growth factor-induced motility,[3],promote the disinhibition
same,CXCL10 inhibition of TGF-β-induced matrix production,[3],interfered
same,CXCL10-induced gene expression on CM,cardiomyocytes (CM),altered
transforming growth factor beta 1 [TGFβ1],increase of cardiac fibroblast motility relative to untreated cells,"cardiac fibroblasts [4]; TGFβ1 10 ng/mL alone, 24 h",over 3 fold
same,"collagen secretion, agent alone",[5],significant upregulation
same,"fibronectin secretion, agent alone",[5],significant upregulation
same,"expression of pro-fibrotic mRNAs, TGF-β alone",primary lung fibroblasts [6],induced expression; also recorded: caused an induction
same,"αSMA expression, TGFβ1 alone",cardiac fibroblasts [7],drastically increased αSMA expression
same,"fibroblast migration (wound closure), TGF-β alone",primary lung fibroblasts [8],significantly increased fibroblast migration; also recorded: significantly increased rate of wound closure
"CCO [ethanol, reference compound]","Calcein-AM positive cells, positive control for dead cells","primary lung fibroblasts [1]; 70% ethanol in water, 30 minutes",elimination of the detected Calcein-AM positive cells
FRFLFRGGRFLFRF [CRF-5-3],ECM alterations following TGF-β and/or CXCL10 treatment,CM/CF co-cultures,CRF-5-3-mediated alterations
same,CXCL10-induced gene expression on FB,cardiac fibroblasts (CF),altered
same,CXCL10 inhibition of TGF-β-induced P38 MAPK-dependent extracellular matrix production,cardiac fibroblasts [2],altered
same,CXCL10-suppressed growth factor-induced ECM production,[3],promote the disinhibition
same,CXCL10-suppressed growth factor-induced intracellular P38 signaling,[3],promote the disinhibition
same,CXCL10-suppressed growth factor-induced motility,[3],promote the disinhibition
same,CXCL10-induced gene expression on CM,cardiomyocytes (CM),altered
C-X-C chemokine ligand 10 [CXCL10],"motility of cardiac fibroblasts, agent alone","cardiac fibroblasts [4]; 10 μM alone, 24 h, compared to control",not altered
same,migration following TGF-β induction in cardiac fibroblasts,cardiac fibroblasts [4]; FIG. 1B,inhibit migration
same,reduction of motility of TGFβ1-treated fibroblasts,"cardiac fibroblasts [4]; TGFβ1 10 ng/mL + agent 10 μM, 24 h",30%
same,cardiomyocyte motility in the presence of TGFβ1,cardiomyocytes,completely inhibited; also recorded: inhibit migration
PESRVIKNLLRVVSKEKSRRSP [IP-10-2],number of viable cells (Calcein-AM uptake),primary lung fibroblasts [1],no impact
"FAKAIKNFAKAVAKFA [IP-10-3, FAKAIKNFAKAVAKFA]",number of viable cells (Calcein-AM uptake),primary lung fibroblasts [1],no impact
